Common to all, as to format: cell-based
One experiment has as its system E. coli (AmpC). In words: microbe, parasite or virus in culture. The following applies: Escherichia coli. As to the method:
(§1) MICs were determined by the broth microdilution method in accordance with Clinical and Laboratories Institute (CLSI) guidelines. In brief, fresh overnight bacterial cultures were suspended in sterile saline, and adjusted to a 0.5 McFarland turbidity standard. Bacterial suspensions were then diluted in cation adjusted Mueller-Hinton Broth (MHB II; BBL) to yield a final inoculum of approximately 5×10^5 colony-forming units (CFU)/mL. A master plate of antibiotics was prepared at a concentration equivalent to hundred-fold the highest desired final concentration in 100% dimethyl sulfoxide (DMSO). The master antibiotic plate was then diluted by serial twofold dilution with a multichannel pipette. The resulting dilution series of compounds were diluted 1:10 with sterile water or a solution of beta-lactamase inhibitor prepared at a concentration equivalent to eleven-fold the desired final concentration in deionized water leading to a 10% DMSO final concentration. A volume of 10 μL of the drug dilution series was transferred to 96-well assay plates. Assay plates were inoculated with 90 μL of bacterial suspensions and incubated at 35° C. for 20 hrs. The assay plates were read using a microtiter plate reader (Molecular Devices) at 600 nm as well as by visual observation with a reading mirror. The lowest concentration of the compound that prevented visible growth was recorded as the MIC. Performance of the assay was monitored by testing aztreonam against laboratory quality control strains in accordance with guidelines of the CLSI.
(§2) Synergy or potentiation of beta-lactam antibiotics through inhibition of Q-lactamases was assessed against an isogenic panel of E. coli strains, each expressing a unique beta-lactamase, and against clinical strains.
The gene encoding AmpC was PCR amplified from the genome of strain P. aeruginosa PAO1 (NB52019) (GenBank ID U5R279) using primer pair E252 (gccCTCGAGggcgaggccccggcggatcgc) (SEQ ID NO: 17) and E253 (tgaGAATTCtcagcgcttcagcggcacct) (SEQ ID NO: 18).
The PCR products were then digested with XhoI and EcoRI and ligated into similarly digested plasmid pAH63-pstS(BlaP). Plasmid pAH63-pstS(BlaP) is a derivative of plasmid pAH63 (J Bacteriol: 183(21): 6384-6393) made by cloning the TEM-1 (bla) promoter and signal peptide encoding region from plasmid pBAD (J Bacteriol. 1995 July 177(14):4121-30) into plasmid pAH63. This fragment was PCR amplified from pBAD using primer pair E192 (ttcaCTGCAGtgaacgttgcgaagcaacggC) (SEQ ID NO:19) and E194 (TCGAggatcctcgagagcaaaaacaggaaggcaaaatgccg) (SEQ ID NO:20), digested with PstI and BamHI and inserted into similarly digested plasmid pAH63. Therefore, expression of beta-lactamases from pAH63-pstS(BlaP) based constructs is constitutive and the signal sequence is provided to direct these proteins to the periplasm. Plasmid pAH63 based vectors are used for insertion into the genome in single copy, however, to provide higher expression levels to allow more sensitive detection of the susceptibility of compounds to the expressed beta-lactamases, the expression inserts contained in these vectors were moved to the replicative multicopy vector pBAD-Kan (J Bacteriol. 1995 July 177(14):4121-30). To accomplish this, the inserts encompassing the beta-lactamase genes, with the associated TEM promoter and signal sequences, were PCR amplified from their corresponding vectors using primer E268 (ccgTCTAGAcggatggcctttttgcgtttc) (SEQ ID NO:21) and E202 (aatcGAATTCttactgaccattaacgcccaagc) (SEQ ID NO:22) for the KPC2 construct, E204 (aatcGAATTCttaacgctgccagtgctcaatc) (SEQ ID NO:23) for the SHV-12 construct and E203 (aatcGAATTCttacagaccgtcggtgacaatc) (SEQ ID NO:24) for the CTX-M-15 construct. These fragments were then digested with XbaI and EcoRI, and each was inserted into pBAD18-kan that had been digested with the same enzymes to generate multicopy vectors expressing KPC-2, SHV-12 and CTX-M-15, respectively. […]

Experiment [1] concerns K. pneumoniae NB29323 (CTX-M-15, OXA-48, VEB-1). The following applies: aztreonam alone. As to the method: as §1, §2
The subject of experiment [2] is Enterobacter cloacae NB25055 (CMY-2). Nature of the experiment: Potentiation of piperacillin in beta-lactam resistant clinical isolate. As to the method:
as §1, §2

A further experiment has as its system S. aureus NB01437 (BLA+). Described as above. As to the method: as §1, §2
For experiment [3], the system named is K. pneumoniae NB29082 (KPC-2). The description is as above. As to the method:
as §1, §2

The next experiment deals with E. coli (KPC-2). Nature of the experiment: microbe, parasite or virus in culture. The note with it: Escherichia coli, read-out: MIC of piperacillin. As to the method: as §1, with “MIC.” for “MIC. Performance of the assay was monitored by testing aztreonam against laboratory quality control strains in accordance with guidelines of the CLSI.”
as §2
(§3) Strain NB27273 (BW25113 pspB::Km^r) was obtained from the Keio transposon insertion collection. The strain has the pspB gene replaced by a kanamycin resistance marker (BW25113 pspB::Km^r). This strain was cured of the transposon in pspB via FLP recombinase using published methodology. The resulting strain, BW25113 pspB, was used as a host for multicopy vectors expressing key beta-lactamases. Multicopy plasmids directing constitutive expression of beta-lactamases were established as follows: Synthetic, codon optimized genes encoding E. coli KPC-2, SHV-12 and CTX-M-15 beta-lactamases were made by DNA2.0 (Palo Alto, Calif.). Each of the synthetic fragments were designed to contain NotI and NcoI restriction sites at their termini, allowing ligation into a NotI/NcoI digested pET28a(+) derivative for protein expression. […] The codon optimized nucleotide sequences and relevant primer recognition information is shown below:
(§4) The PCR products were then digested with XhoI and EcoRI and ligated into similarly digested plasmid pAH63-pstS(BlaP). […] Therefore, expression of beta-lactamases from pAH63-pstS(BlaP) based constructs is constitutive and the signal sequence is provided to direct these proteins to the periplasm. […] These fragments were then digested with XbaI and EcoRI, and each was inserted into pBAD18-kan that had been digested with the same enzymes to generate multicopy vectors expressing KPC-2, SHV-12 and CTX-M-15, respectively. These vectors were transformed into BW25113 pspB to generate strains NB27273-CDY0033 (expressing KPC-2), NB27273-CDY0030 (expressing SHV-12), NB27273-CDY0034 (expressing CTX-M-15) and NB27273-CDY0036 (expressing AmpC). The pBAD18-kan vector also contains the TEM promoter region and signal sequence, (but lacks any intact beta-lactamase genes) and was transformed into BW25113 pspB using standard protocols to generate the control strain NB27273-CDY0026.

The subject of another experiment is E. coli (SHV-12). In words: microbe, parasite or virus in culture. The following applies: Escherichia coli, Pip alone, read-out: MIC of piperacillin. As to the method: as §1, with “MIC.” for “MIC. Performance of the assay was monitored by testing aztreonam against laboratory quality control strains in accordance with guidelines of the CLSI.”
as §2, §3, §4

In a further experiment the test system is E. coli (CTX-M-15). In words: microbe, parasite or virus in culture. The following applies: Escherichia coli, Pip alone, read-out: MIC of piperacillin. As to the method:
as §1, with “MIC.” for “MIC. Performance of the assay was monitored by testing aztreonam against laboratory quality control strains in accordance with guidelines of the CLSI.”
as §2, §3, §4

The test system of a further experiment is E. coli (OXA-18). Nature of the experiment: microbe, parasite or virus in culture. As to the method:
as §1, with “MIC.” for “MIC. Performance of the assay was monitored by testing aztreonam against laboratory quality control strains in accordance with guidelines of the CLSI.”
as §2
(§5) Construction of E. coli isogenic strains, NB27273-CDY0105 (OXA-18) and NB27273-CDY0048 (TEM-10). […] The gene encoding OXA-18 was then digested with XhoI and EcoRI and inserted into this vector, from which the gene for GIM-1 had been removed with XhoI and EcoRI.
(§6) These final vectors for expression of OXA-18 and TEM-10 were transformed into BW25113 pspB to generate strains NB27273-CDY0105 (expressing OXA-18) and NB27273-CDY0048 (expressing TEM-10).

Another experiment deals with E. coli (TEM-10). Nature of the experiment: microbe, parasite or virus in culture. The following applies: Escherichia coli, Pip alone, read-out: MIC of piperacillin. As to the method: as §1, with “MIC.” for “MIC. Performance of the assay was monitored by testing aztreonam against laboratory quality control strains in accordance with guidelines of the CLSI.”
as §2, §5
From this template DNA, three fragments were generated by PCR using the following primer pairs;
This fragment was then digested with XbaI and EcoRI and inserted into pBAD-kan which was also cut with the same enzymes.
as §6

Read-outs that look alike come from different tables or passages of the source.

On to `C[C@H]1[C@H](NC(=O)/C(=N\OC(C)(C)C(=O)O)c2csc(N)n2)C(=O)N1S(=O)(=O)O` [Aztreonam], for which, in the experiment on E. coli (AmpC) (read-out: MIC of aztreonam, AZ alone), the MIC came to 4 µg/mL. In [1], the Activity of aztreonam is over 64 µg/mL.

Regarding `CCN1CCN(C(=O)N[C@@H](C(=O)N[C@@H]2C(=O)N3C2SC(C)(C)[C@@H]3C(=O)O)c2ccccc2)C(=O)C1=O` (stereo partly drawn) [Piperacillin], the Activity of piperacillin in experiment [2] (piperacillin alone) is over 64 µg/mL; in the experiment with S. aureus NB01437 (BLA+) (piperacillin alone) it was 64 µg/mL; in experiment [3] (piperacillin alone) it was over 64 µg/mL. Also, the MIC with E. coli (KPC-2) was over 32 µg/mL; in the experiment on E. coli (SHV-12) it was over 32 µg/mL; with E. coli (CTX-M-15), over 32 µg/mL; with E. coli (AmpC) (Pip alone, read-out: MIC of piperacillin), over 32 µg/mL; with E. coli (OXA-18) (Escherichia coli, Pip alone, read-out: MIC of piperacillin), over 32 µg/mL; with E. coli (TEM-10), over 32 µg/mL.

`C[C@]1(Cn2ccnn2)[C@H](C(=O)O)N2C(=O)C[C@H]2S1(=O)=O` [Tazobactam]: the figures for the “Activity of piperacillin with beta-lactamase inhibitor” value (in experiment [2] (Pip + BLI at 4 μg/mL); in the experiment on S. aureus NB01437 (BLA+) (Pip + BLI at 4 μg/mL); in experiment [3] (Pip + BLI at 4 μg/mL)) were 64 µg/mL, 1 µg/mL and over 64 µg/mL, respectively. The “MIC of piperacillin with beta-lactamase inhibitor” value in the experiment on E. coli (OXA-18) (Pip + BLI at 4 μg/mL) was determined as 8 µg/mL.

The record behind these values is patent publication US10065957B2, “Beta-lactamase inhibitors” (Novartis AG, priority 2016, dated 2018).
